Laboratory results taken from patent US7358233B2, “Tetronic acid derivative” (Toudai TLO, Ltd, priority 2001, dated 2008).

Assays:
HT-29 cells [1] = test: Antitumor effect against HT-29 cells transplanted into nude mice; type: in vivo; conditions: HT-29 tumor grown to 100 mm^3 in nude mice; VST through the tail vein (FIG. 15)
Experimental: The antitumor effect of VST at the animal level was examined. Specifically, HT-29 cells were transplanted into nude mice and tumor was grown to 100 mm^3. Subsequently, each concentration of VST was administered through the tail vein, progress of cancer was followed each day thereafter, and the tumor was enucleated to compare its size. […] Furthermore, the combined effect with CDDP (cisplatin) was examined.

HT-29 cells [2] = test: Combined use of VST and cisplatin, colony-forming ability of HT-29 cells; type: cell-based; conditions: glucose starvation condition
Source text: Enhancement of endoplasmic reticulum stress response promotes survival of cells under undernutritive conditions, and at the same time allows cells to acquire resistance to antitumor agents. Therefore, the inventors intended to examine the effect of VST on known antitumor agents. […] Therefore, the combined effect with other pharmaceutical agents could not be duly examined. Thus, cisplatin generally used for solid cancer treatment was used to examine the combined effect, due to its activity on cancer cells that is maintained even under low glucose conditions. Specifically, HT-29 cells were cultured by the above-mentioned method, pretreated for 30 min with VST, and then cultured for 18 hours. The cells were then treated for 4 hours with each concentration of cisplatin, and a week later their colony-forming ability was examined.

N.N.[Cl][Pt][Cl] [cisplatin, reference compound] was tested, and the “antitumor effect (tumor size)” value (HT-29 cells [1]) was “sufficient” and the “activity on colony-forming ability under glucose starvation condition” value (HT-29 cells [2]) was “enhance the activity”.
